Counter-ions that a name gives are not always drawn.
Key:
[1] = system: bronchoconstricting action of histamine; experiment: Histamine bronchoconstriction in narcotized guinea pigs (Concette-Rossler method); format: in vivo; conditions: intravenous, 0.1 to 0.2 mg/kg
From the text: As to the mechanism of its action, the medicated compound of the present invention represents an antagonist to histamine liberated in antigen-antibody reactions.

[2] = system: bronchospasm caused by serotonine (5-hydroxytriptamine); experiment: Bronchospasm caused by serotonine; conditions: in vivo
[3] = system: bronchospasm caused by acetylcholine; experiment: Bronchospasm caused by acetylcholine; conditions: in vivo
[4] = system: hypotensive activity of intravenously injected histamine; experiment: Hypotensive activity of intravenous histamine in narcotized cats; format: in vivo; conditions: 0.2 to 0.5 mg/kg, histamine 1 mcg/kg i.v.
[5] = system: intoxication caused by histamine aerosol; experiment: Histamine aerosol intoxication in guinea pigs; format: in vivo; conditions: in the stomach, 30 to 50 mg/kg, spraying 300 seconds
[6] = system: ophthalmic response (hyperemia and chemosis) caused by histamine; experiment: Ophthalmic response to histamine instilled into conjunctival sac of guinea pigs; format: in vivo
[7] = system: foot edema caused by serotonin; experiment: Rat foot edema caused by subplantar serotonin; format: in vivo, rats
From the text: (§1) The medicated compound of the present invention irrespectively of the medication mode exerts anti-edemic antianaphylactic action.

[8] = system: foot edema caused by formalin; experiment: Rat foot edema caused by subplantar formalin; format: in vivo, rats; conditions: 25 mg/kg intraperitoneally and 50 mg/kg in the stomach; formalin 0.2 ml of 2% solution; P over 0.05
From the text: as §1

[9] = system: foot edema caused by dextrane; experiment: Rat foot edema caused by subplantar dextrane; format: in vivo, rats; conditions: 25 mg/kg intraperitoneally and 50 mg/kg in the stomach; dextrane 0.1 ml of 6% solution; P over 0.05
From the text: as §1

[10] = system: chronic aseptic inflammation; experiment: Chronic aseptic inflammation by hypodermical implantation of wool balls to rats; format: in vivo; conditions: hypodermically, 25 mg/kg
[11] = system: heart-vascular system, digestive tract, and excretory organs; experiment: Pharmacological and toxicological studies: heart-vascular system, digestive tract, excretory organs; conditions: in vivo
central nervous system [12] = experiment: Central nervous system effects in test animals; format: in vivo; conditions: mice, rats, rabbits, cats; different modes of administration
[13] = system: general state and behaviour of animals; experiment: General state and behaviour after single medication; format: in vivo, mice, rats, guinea pigs, cats and dogs; conditions: different modes, versus dimedrol and diprasine
Acute toxicity in rats = conditions: rat, in vivo, po, in the stomach
[14] = Acute toxicity in guinea pigs; format: in vivo
[15] = Repeated administration to rats; format: in vivo
[16] = Embryotoxicity / teratogenicity in pregnant rats; format: in vivo; conditions: per os, single doses 3/4 of LD50, various periods of pregnancy
allergic diseases = experiment: Clinical test on patients suffering from allergic diseases; format: in vivo
From the text: (§2) The medicated compound of the present invention was clinically tested on 250 patients aging from 18 to 70 years suffering from allergic diseases for a period of from 3 months to 10 years, and treated with various anti-histamine medicines.
The treatment with the medicated compound of the present invention was effected in allergological surgeries under ambulatory and stationary conditions.
The majority of the stationary patients were hospitalized with serious, or lasting allergic responses and frequently with accompanying diseases of the heart-vascular system, and digestive tract.
(§3) The medicated compound of the present invention was used for the treatment of acute and chronic urticaria, hay fever, Quincke's oedema, dermal itch, chronic eczema, polysyndromic phenomena of intolerance (arthropathy, eosinophilia, temperature increase), dermatoblepharoconjunctivitis, and bronchial-asthma.
(§4) In the case of dermatoblepharonconjunctivitis and some other allergic ophthalmic diseases, the medicated compound of the present invention was administered per os (one tablet of 0.025 g 3 to 4 times per day).
The medicated compound of the present invention was used individually (without an additional desensibilizing therapy) per os in a dose of from 3 to 6 tablets (0.025 g each) per day, usually directed after eating.

bronchial asthma = experiment: Clinical test: bronchial asthma; format: in vivo; conditions: patients
From the text: as §2, §3

[17] = system: dermatoblepharonconjunctivitis and some other allergic ophthalmic diseases; experiment: Clinical test: dermatoblepharoconjunctivitis and other allergic ophthalmic diseases; format: in vivo, patients
Description: as §2, §4

Clinical tolerability = format: in vivo, patients
From the text: as §2
However, with the patients over 60 years of age, or those weakened by accompanying serious diseases, some cases of a "seductive" effect of the medicated compound of the present invention were noticed.

central nervous system [18] = experiment: Depressive effect on the central nervous system; conditions: in vivo
From the text: The majority of modern anti-histamine medicines reveal a strong sedative effect, whereby their administration is substantially limited in the ambulatory treatment, especially in the case of persons engaged in intellectual pursuits, or persons whose occupation requires quick physical and psychic responses, e.g. drivers of transport vehicles.

Acute toxicity in mice = conditions: mouse, in vivo
[19] = system: anaphylactic response caused by ovalbumin; experiment: Anaphylactic response to ovalbumin aerosol in actively sensibilized guinea pigs; conditions: 25 mg/kg intraperitoneally and 50 mg/kg in stomach; 25% ovalbumin aerosol, 10 minutes
[20] = Acute toxicity, diprasine, intravenous; conditions: intravenously
[21] = rats, in the stomach, 22 times, 1/4 of LD50

**Q.** What does the source list for `OC(c1ccccc1)(c1ccccc1)C1CN2CCC1CC2` (centres unmarked) [(quinuclidyl-3)-diphenylcarbinol hydrochloride]?
**A.** bronchoconstricting action of histamine [1]: weakens, or inhibits the bronchoconstricting action of histamine; influence on bronchospasm caused by serotonine [2]: only a slight influence; influence on bronchospasm caused by acetylcholine [3]: only a slight influence; hypotensive activity of histamine [4]: prevents hypotensive activity; protection from intoxication (dispnea, apnoea, clono-tonic spasm) [5]: completely protects the animals; ophthalmic response (hyperemia and chemosis) ([6]; into the stomach, 50 mg/kg, 2% solution of histamine): prevents or substantially reduces ophthalmic response; reduction of foot edema of hind limb, serotonin ([7]; 25 mg/kg intraperitoneally and 50 mg/kg in the stomach, serotonin 5 mcg, P over 0.05): more than 2 times; anti-edemic efficiency relative to dimedrol and diprasine ([7]; rat foot edema (serotonin, formalin, dextrane)): more efficient than dimedrol, and more active than diprasine (promethasine); reduction of foot edema of hind limb, formalin [8]: more than 2 times; reduction of foot edema of hind limb, dextrane [9]: more than 2 times; anti-inflammation effect [10]: pronounced anti-inflammationeffect; anti-inflammation effect relative to dimedrol [10]: superior over dimedrol; influence on heart-vascular system, digestive tract, and excretory organs [11]: only a relatively slight influence; action of various hypnotics (central nervous system [12]): does not extend the action of various hypnotics; influence on latent period of conditioned reflexes (central nervous system [12]): nor has it any influence; influence on spontaneous motor activity (central nervous system [12]): no influence; influence on summation ability of the central nervous system (central nervous system [12]): no influence; influence on general state and behaviour of animals [13]: to a considerably lesser extent than dimedrol (diphenhydramine) and especially diprasine (promethasine); LD50 (Acute toxicity in rats): 440 mg/kg; absolute lethal dose [14]: 500 mg/kg; influence on general state and behaviour, peripheral blood, biochemical characteristics of blood and urina [15, 21]: no essential influence; pathomorphological changes in internal organs [15, 21]: no pathomorphological changes in internal organs; tolerance of repeated administration ([15]; relatively high doses): well tolerated by the test animals; embriotoxic or teratogenic effects [16]: does not exert any embriotoxic or teratogenic effects; efficacy in allergic diseases (allergic diseases; acute and chronic urticaria, hay fever, vasomotor rhinitis, Quincke's oedema, itching dermatosis, chronic eczema, polysyndromic phenomena of intolerance): highly efficient; efficacy in patients with developed adaptation to other anti-histamine medicines (allergic diseases; human, in vivo): efficient; time to better condition of patients (dermal eruptions and itching reduced) (allergic diseases; per os, 3 to 6 tablets (0.025 g each) per day): 3 days; efficacy in bronchial asthma (bronchial asthma): inefficient; curing action in allergic ophthalmic diseases ([17]; per os, one tablet of 0.025 g 3 to 4 times per day): satisfactory curing action; therapeutic effect with corticosteroids ([17]; simultaneous administration of corticosteroids (dexamethazone)): therapeutic effect was enhanced; tolerability (Clinical tolerability; human, in vivo): well tolerated; "seductive" effect (Clinical tolerability; patients over 60 years of age or weakened by accompanying serious diseases): some cases; discomfort (Clinical tolerability; patients with accompanying serious diseases of the digestive tract): short-time phenomena of discomfort are possible; time to disappearance of discomfort (Clinical tolerability; patients with accompanying serious diseases of the digestive tract, without cancelling or reducing dosage): 1 to 2 days; depressive effect on the central nervous system (central nervous system [18]): does not exert a depressive effect on the central nervous system; LD50 (Acute toxicity in mice; iv): 62 mg/kg; LD50 (Acute toxicity in mice; po): 370 mg/kg; antiallergic effect [19]: clearly pronounced antiallergic effect; signs of anaphylactic response / latent period [19]: increasing the latent period, or completely inhibiting signs of anaphylactic response

**Q.** For `CN(C)CCOC(c1ccccc1)c1ccccc1` [dimedrol, diphenhydramine hydrochloride, reference compound], which “effect on ophthalmic response” value ([6]; similar experiments, compared with the medicated compound) is on record?
**A.** much less pronounced

**Q.** With `CC(CN1c2ccccc2Sc2ccccc21)N(C)C` (centres unmarked) [diprasine (promethasine), promethasine] as the molecule, how does the “dose resulting in the death of half of the animals” value [20] read?
**A.** 25 mg/kg
